Patent US12544375B2, “Small molecule therapeutic for parkinson's disease paired with a biomarker of therapeutic activity” (The Board of Trustees of the Leland Stanford Junior …, priority 2019, dated 2026)

Test system: healthy-1 or PD-2 fibroblasts
Test: Mitochondrial morphology and membrane potential, TMRM staining
Type: cell-based, human
Settings: 10 μM for 30 hrs
Description: FIG. 8. Related to FIG. 2-4. Miro1 Reducer in Human Cell and Fly Models. (A) Fibroblasts from Healthy-1 and PD-2 were treated, lysed, and blotted as indicated. Band intensities are normalized to those of GAPDH from the same blots and compared to “Healthy-1, no treatment”. n=4 independent experiments. (B) Fibroblasts from PD-2 were treated and immunostained as indicated. The intensity was quantified for each cell across 264-320 cells from 3 independent experiments, compared to “no treatment”. (C) Fibroblasts were treated, immunoprecipitated (IPed) with anti-Miro1, and blotted as indicated. Similar results were observed twice. (D) Similar as in (C), fibroblasts were treated as indicated, and IPed with anti-Miro1. The GTPase activity of the IPed Miro1 protein was measured as described in Method. […] The MitoSox intensity was quantified for each cell across 106-161 cells from 3 coverslips. […] The TMRM intensity was measured for each cell across 48-60 cells from 3 independent experiments, and expressed as a fraction of the mean of “Healthy-1, no treatment”. […] The movement (the intensity of non-yellow) was quantified for each cell as described in (Tsai et al., 2014) across 22-31 cells from 3 transfections. […] (1) Left: The percentage of TH-positive iPSC-derived neurons out of total cells (Dapi-positive) is calculated after immunocytochemistry under 20× as described in FIG. 3. […]

O=C(Nc1ccc(Nc2cc(-n3ccnc3)ncn2)cc1)Nc1cccc(F)c1 [Miro1 Reducer]
general mitochondrial morphology and ΔΨm (TMRM): did not affect
